Columns and labels:
[1] = system: H929 cells and CD138+ primary MM cells; assay: qRT-PCR of B cell and PC markers in MM cells, liquid or BM stroma co-culture; type: cell-based, human
Protocol: FIG. 3A-H depicts the relative concentration of plasma markers BCL6 (FIG. 3A and E), BLIMP-1 (FIG. 3B and F), XBPS-1 (FIG. 3C and G), and CHOP (FIG. 3D and H) in multiple myeloma (MM) cell lines H929 (FIG. 3A-D) or CD138+ MM cells from three different patient samples (FIG. 3E-H) incubated for 5 days either in the absence of stroma (Liquid), with or without AGN (RA receptor antagonist AGN194310, 1 μM), or co-cultured with BM mesenchymal cells (Stroma), with or without R115 (CYP26 inhibitor R115866, 1 μM) or IRX (CYP26-resistant retinoid IRX5183, 1 μM). Expression in untreated liquid conditions was set at 1. Data are representative of 3 independent experiments with similar results and represent the mean ±SEM. *P≤0.05 and **P≤0.01, by repeated-measures 1-way ANOVA for determination of statistical significance between groups; P values were corrected for multiple comparisons using Dunnett's test. Ctrl, control; max, maximum.
(§1) Coculture experiments. 24-well plates were coated with 0.1% gelatin in PBS for 30 min at 37° C. The gelatin solution was removed, and the stromal cells were cultured overnight at a density of 5×10^4 cells/well to obtain a confluent monolayer. At that time, MM cell lines or primary MM cells (1×10^5 in 2 ml) were added to the stroma cultures. The stroma cocultures were incubated at 37° C. in RPMI containing 10% FCS, L-glutamine, and P/S, with or without AGN194310 (1 μM for 5 days), R115866 (1 μM for 5 days), IRX5183 (1 μM for 5 days), or BTZ (2.5 nM for 48 hr).
qRT-PCR. Total RNA was extracted using the RNeasy Mini Kit (QIAGEN) according to the manufacturer's instructions. cDNA was synthesized by reverse transcription using the iScript cDNA Synthesis Kit (Bio-Rad). qRT-PCR was performed with iTaq SYBR Green Supermix (Bio-Rad) using sequence specific primers. Gene expression was normalized to GAPDH, and relative quantification was calculated using ΔΔCt. All experiments were performed in duplicate and run on the Bio-Rad CFX96 machine.
The BM microenvironment (also called “niche”) limits PC differentiation by modulating retinoid signaling. A population of MM progenitors, phenotypically similar to B cells, is intrinsically resistant to BTZ and contributes to MRD and relapse. To investigate whether the BM niche plays a role in determining the phenotype of MM cells, the mRNA expression of B cell and PC markers in MM H929 cell lines (FIG. 3A-D) and MM CD138+ primary cells (FIG. 3E-H) was analyzed following co-culture with mouse BM stroma using human-specific primers. […] In contrast, co-culture of MM cells with BM stroma decreased the mRNA expression of B lymphocyte-induced maturation protein 1 (BLIMP1) and spliced X box-binding protein 1 (XBP1s) (FIG. 3B, C, F, G), which are critical mediators of PC differentiation.
The BM niche regulates hematopoietic stem cell (HSC) differentiation by expressing the retinoid-inactivating enzyme CYP26. CYP26 enzymes were highly expressed in BM mesenchymal cells, while their expression was barely detectable in MM cells. Since retinoid signaling promotes PC differentiation and potentiates Ig secretion, it was determined whether stromal CYP26 is responsible for inducing a B cell phenotype in MM cells. To this end, co-culture conditions were treated with the CYP26 inhibitor R115866 (R115) or the CYP26-resistant RA receptor α-selective (RARα-selective) retinoid IRX5183 (IRX).

RARα = assay: transactivation assay, agonist activity; details: RARα versus RARβ and RARγ, FIG. 1
Source text: Transactivation assays employ expression plasmids encoding the full length receptors RARα, RARβ, and RARγ. Reporter plasmids containing the herpes virus thymidine kinase promoter and the appropriate retinoic acid receptor response element (RAREs) are positioned upstream of an open coding region encoding firefly luciferase.

[2] = system: H929 cells and primary CD138+ MM cells; assay: clonogenic or cellular recovery of MM cells after BTZ treatment; type: cell-based, human; details: stroma co-culture, 1 μM for 5 days, then BTZ 2.5 nM
Protocol: FIG. 4A-B depicts the clonogenic recovery (CFU) of H929 cells (FIG. 4A) or cellular recovery of primary CD138+ MM cells from 3 different patient samples (FIG. 4B). MM cells were treated with bortezomib (BTZ; 2.5 nM) for 48 hours after being incubated for 5 days either in the absence of stroma (Liquid), with or without the pan-RAR inhibitor AGN (1 μM), or in the presence of BM mesenchymal cells (Stroma), with or without the CYP26 inhibitor R115 (1 μM) or the CYP26-resistant retinoid IRX (1 μM). Clonogenic or cellular recovery was normalized to each condition in the absence of BTZ.
as §1
Clonogenic assays. After treatment, MM cells were collected, washed with PBS, and plated at a density of 5,000 cells/ml in 1 ml of 1.32% methylcellulose supplemented with 30% FBS, 10% BSA, L-glutamine, P/S, and 0.1 mM β-ME. Cells were plated in triplicate in 35-mm culture dishes, incubated at 37° C., and scored for the presence of colonies 14 days later.
A RA-low microenvironment induces BTZ resistance. To determine whether decreased retinoid signaling contributes to BTZ resistance within the BM niche, MM cell lines and MM CD138+ primary cells were incubated with BM stroma for 5 days, followed by BTZ treatment.

RARβ = target: T1, RARβ (Homo sapiens, UniProt P10826); assay: displacement assay, agonist binding affinity; details: read-out: Binding Affinities for RARβ
T1 construct: cloned receptor RAR molecules are first loaded with radiolabeled all-trans-retinoic acid
T1 sequence (P10826 1-455): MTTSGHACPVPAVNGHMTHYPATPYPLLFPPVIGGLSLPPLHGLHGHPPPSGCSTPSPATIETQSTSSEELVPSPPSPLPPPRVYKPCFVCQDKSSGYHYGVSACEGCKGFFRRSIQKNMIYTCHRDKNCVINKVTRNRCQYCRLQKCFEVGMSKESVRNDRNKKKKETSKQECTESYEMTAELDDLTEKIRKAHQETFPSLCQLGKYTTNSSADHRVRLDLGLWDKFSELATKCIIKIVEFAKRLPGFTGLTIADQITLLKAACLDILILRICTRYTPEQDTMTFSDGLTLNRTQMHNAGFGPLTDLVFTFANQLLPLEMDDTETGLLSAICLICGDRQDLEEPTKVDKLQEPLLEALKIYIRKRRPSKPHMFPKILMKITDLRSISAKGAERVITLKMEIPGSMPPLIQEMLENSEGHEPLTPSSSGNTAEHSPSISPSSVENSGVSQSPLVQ
Protocol: Binding assays are performed using a classic competition assay format in which cloned receptor RAR molecules are first loaded with radiolabeled all-trans-retinoic acid […] and then the amount of radioactivity liberated with increasing concentration of test compound is measured.

- Kd (RARβ): > 10 µM
SMILES: CC1(C)CCC(C)(C)c2c1cc(C(=O)Nc1cc(F)c(C(=O)O)c(F)c1)c(O)c2Cl [IRX5183]
- expression of differentiation markers by qRT-PCR or flow cytometry ([1]; liquid conditions compared with BM stroma): induced comparable changes, irrespective of the presence or absence of BM stroma
- mRNA expression of B cell and PC markers (BCL6, BLIMP1, XBP1s, CHOP) ([1]; stroma co-cultures, 1 μM for 5 days): restored all markers to levels comparable to those of liquid control conditions
- agonist activity (transactivation) (RARα): specifically activates RARα
- effect on stroma-induced BTZ resistance [2]: overcome

Source: US11786555B2, “RAR selective agonists in combination with immune modulators for cancer immunotherapy” (IO THERAPEUTICS, INC., priority 2017, dated 2023)
